Assay [1] relates to transcripts that have splice variants. The note with it: mptp study, cited from earlier work.
The test system of assay [2] is Ania6 splice variants (Ania6 and Ania6a mRNA). In words: Ania6 splice variant mRNA levels in blood of MPTP-treated mice, RT-PCR. The following applies: chronic MPTP treatment. The assay is classed as in vivo, mouse. An excerpt:
(§1) Mice were then euthanized either at 3 days or 3 weeks after treatment. Two time periods were selected in order to characterizing splicing events in the blood over time. Controls for the acute group include mice treated with saline and, for the chronic experiments, mice treated with probenecid or saline.
(§2) Blood specimens for assaying RNA from the mice described in Example 1 above were obtained as follows. Mice were sacrificed by cervical dislocation and the heart lacerated to release the blood. Approximately 50 μl of 0.05 M EDTA, pH 8.0 was added to the chest cavity to prevent the blood from coagulating. Blood was collected in a sterile 1 ml syringe that was initially rinsed in 0.50 M EDTA pH 8.0.
(§3) RNA from blood samples obtained as described in Example 2 was separated on a 1.8% agarose gel and stained with 5 μl of ethidium bromide (10 mg/ml stock) diluted into 10 ml of a TAE buffer (pH 8.5 40 mM Tris.acetate, 2 mM Na2EDTA.2H2O. After staining, the RNA was visualized on a UV light box and the 18S RNA band was quantified. The image was captured using a Kodak EDAS290 system (Kodak, Rochester, N.Y.) and the Kodak 1D Image Analysis software (Kodak, Rochester, N.Y.) was used to quantify. Other similar cameras and analysis softwares will also work. […]

The test system of assay [3] is AChE splice variants (AChE-R and AChE-S mRNA). Kind of assay: AChE splice variant mRNA levels in blood of MPTP-treated mice, RT-PCR. The class given is in vivo, mouse.
Excerpt: as §1, §2
(§4) RNA from blood samples obtained as described in Example 2 was separated on a 1.8% agarose gel and stained with 5 μl of ethidium bromide (10 mg/ml stock) diluted into 10 ml of a TAE buffer (pH 8.5 40 mM Tris.acetate, 2 mM Na2EDTA.2H2O. After staining, the RNA was visualized on a UV light box and the 18S RNA band was quantified. The image was captured using a Kodak EDAS290 system (Kodak, Rochester, N.Y.) and the Kodak 1D Image Analysis software (Kodak, Rochester, N.Y.) was used to quantify. Other similar cameras and analysis softwares will also work.
(§5) Splice variant mRNA was assayed using reverse transcriptase polymerase chain reactions (RT-PCR) as described in U.S. patent application Ser. No.: 11/215,842. PCR conditions for amplification of FosB, RGS9, AchE, Ania6 and NDUFS4 are the same as disclosed in U.S. patent application Ser. No.: 11/215,842 except different kits were used for FosB and RGS9 compared to the other 3 transcripts.
• 1. 95° C. 8 minutes • 2. 95° C. 30 seconds • 3. 57° C. 30 seconds • 4. 72° C. 30 seconds • 5. Repeat from step 2 35 times • 6. 72° C. 10 minutes RGS9 (SYBR green, Applied Biosystems, Foster City, Calif.) • 1. 95° C. 8 minutes • 2. 95° C. 30 seconds • 3. 54° C. 30 seconds • 4. 72° C. 30 seconds • 5. Repeat from step 2 35 times • 6. 72° C. 10 minutes AChE (go Taq Green, Promega, Madison, Wis.) • 1. 95° C. 5 minutes • 2. 95° C. 30 seconds • 3. 61° C. 30 seconds • 4. 72° C. 30 seconds • 5. Repeat from step 2 30 times • 6. 72° C. 5 minutes NDUFS4 (go Taq Green, Promega, Madison, Wis.) • 1. 95° C. 5 minutes • 2. 95° C. 30 seconds • 3. 64° C. 30 seconds • 4. 72° C. 30 seconds • 5. Repeat from step 2 30 times • 6. 72° C. 5 minutes Ania (go Taq Green, Promega, Madison, Wis. • 1. 95° C. 5 minutes • 2. 95° C. 30 seconds • 3. 57° C. 30 seconds • 4. 72° C. 30 seconds • 5. Repeat from step 2 35 times • 6. 72° C. 5 minutes Primers used in the PCR Assays: […]
We investigated whether the amount of the splice variants of acetylcholinesterase (AChE) changed after MPTP toxin treatment. AChE hydrolyzes acetylcholine (ACh) and thereby functions to terminate Ach-mediated neurotransmission. In many neuropathologies, the characteristics of AChE are modified in the central nervous system. We looked at the AChE-S and ACHE-R splice variants. The AChE-S mRNA produces the canonical synaptic tetrameric form of the enzyme. AChE-S is formed by skipping exon 5 such that the final mRNA is composed of exons 1-4 and exon 6 (FIG. 5). The protein produced from this transcript has a cysteine-containing carboxyl-terminus that allows for the formation of the tetramer. AChE-R, produces a read-through transcript in which a downstream splice donor is spliced to the intron 4 3′ splice site such that exon 5 is included in the mRNA (FIG. 6). This produces a protein with a different carboxyl-terminus than the synaptic form. […]

In assay [4] the test system is RGS9 splice variants (RGS9-1 and RGS9-2 mRNA). In words: RGS9 splice variant mRNA levels in blood of MPTP-treated mice, RT-PCR. The class given is in vivo, mouse.
Excerpt: as §1, §2, §3

For assay [5], the system named is FosB splice variants (FosB and ΔFosB mRNA). Kind of assay: FosB splice variant mRNA levels in blood of MPTP-treated (Parkinsonian) mice, RT-PCR. The class given is in vivo, mouse. The following applies: vs vehicle.
Excerpt: as §1, §2, §3

For assay [6], the system named is NDUFS4 splice variants (NDUFS4 and NDUFS4-SV3 mRNA). In words: NDUFS4 splice variant mRNA levels in MPTP-treated mice, RT-PCR. The assay is classed as in vivo, mouse. The following applies: chronic MPTP treatment.
Excerpt: as §1, §2, §4, §5
• 1. 95° C. 8 minutes • 2. 95° C. 30 seconds • 3. 57° C. 30 seconds • 4. 72° C. 30 seconds • 5. Repeat from step 2 35 times • 6. 72° C. 10 minutes RGS9 (SYBR green, Applied Biosystems, Foster City, Calif.) • 1. 95° C. 8 minutes • 2. 95° C. 30 seconds • 3. 54° C. 30 seconds • 4. 72° C. 30 seconds • 5. Repeat from step 2 35 times • 6. 72° C. 10 minutes AChE (go Taq Green, Promega, Madison, Wis.) • 1. 95° C. 5 minutes • 2. 95° C. 30 seconds • 3. 61° C. 30 seconds • 4. 72° C. […]

The mark [7] stands for this setting: chronic MPTP treatment, 3 days and 3 weeks after.

Take `CN1CC=C(c2ccccc2)CC1` [MPTP, 1-methyl-4-phenyl-1,2,3,6-tetrahydropyridine]: the “Change of BAX M, isoform-a transcript” value in assay [1] (function Apoptosis) is “Up”. In assay [1] (function Cell cycle), the “Change of Cyclin B2 transcript” value is on record as “Down”. The “Change of Alpha-synuclein transcript” value in assay [1] (function PD-associated) was “Up”. Moreover, in assay [1] (function Receptors), the “Change of Ach N receptor transcript” value is “Up”, the “Change of IL-1 recept II transcript” value is “Up”, the “Change of IL-2 rp-G transcript” value was “Up” and the “Change of IL-10 transcript” value is recorded as “Up”. The “Change of Gtase transcript” value in assay [1] (function Stress) is listed as “Down”. Moreover, the “Ania6a mRNA/18S RNA” value in assay [2] was “increases”. Further, the “Ania6 mRNA/18S RNA” value in assay [2] (3 days and 3 weeks after) was “decreases after chronic MPTP treatment and remains lower for 3 weeks”. In addition, in assay [3] (acute MPTP treatment), the “AChE-R mRNA/18S RNA” value is on record as “increases” and the “AChE-R mRNA/AChE-S mRNA” value was “increases”. In assay [3] (chronic MPTP treatment), the “AChE-R mRNA/AChE-S mRNA” value is on record as “decreases” and the “AChE-S mRNA/18S RNA” value is “increases”. The “AChE-R mRNA/18S RNA” value in assay [3] (setting [7]) was “decreases and remains lower for 3 weeks”. In addition, the “RGS9-2 mRNA/18S RNA” value in assay [4] (acute MPTP treatment) is recorded as “decreases”. Moreover, in assay [4] (setting [7]), the “RGS9-2 mRNA/RGS9-1” value is “decreases after chronic MPTP treatment and remains lower for 3 weeks”. In addition, the “FosB mRNA/18S RNA” value in assay [5] (acute MPTP treatment (20 mg/kg, 4 times, every 2 hours), euthanized 3 days later) is “decreases”. Further, in assay [5] (chronic MPTP (25 mg/kg s.c.) and probenecid, twice each week for 5 weeks), the “ΔFosB mRNA/18S RNA” value is recorded as “decreases”. Further, the “NDUFS4 mRNA/18S RNA” value in assay [6] is “decreases”. In assay [6] (3 days and 3 weeks after), the “NDUFS4-SV3 mRNA/18S RNA” value was “decreases after chronic MPTP treatment and remains lower for 3 weeks”; the “NDUFS4-SV3 mRNA/NDUFS4 mRNA” value is “decreases after chronic MPTP treatment and remains lower for 3 weeks”.

Values taken from patent publication US20070087376A1, “Splice variants of pre-mRNA transcripts as biomarkers in idiopathic neurodegenerative diseases” (priority 2004, published 2007).
